From US20260234165A1, “MACROCYCLIC COMPOUNDS, PREPARATION METHOD THEREFOR, AND USE THEREOF” (GENFLEET THERAPEUTICS (SHANGHAI) INC., priority 2004, published 2026)
Where a name gives a salt, the structure may show the parent alone. Read-outs that look alike come from different tables or passages of the source.

Key:
Format in all cases: cell-based, human
[1] = tested on: p-ERK in NCI-H441 cells (KRAS G12V mutation); test: Cell p-ERK assay (HTRF) in NCI-H441 cells; details: NCI-H441 cells, 3 h compound incubation, HTRF p-ERK T202/Y204, read-out: H441 p-ERK IC50
Outline: (§1)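 AsPC-1 (10000/well) or NCI-H441 (20000/well) cells were seeded in RPMI-1640 with 10% FBS, grown overnight, then exposed to 3.16-fold compound dilutions (0.1% DMSO) for 3 h at 37 °C. Lysates were read for phospho-ERK T202/Y204 by HTRF; IC50 came from four-parameter fits of inhibition versus DMSO and blank wells.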

[2] = tested on: p-ERK in AsPC-1 cells (KRAS G12D mutation); test: Cell p-ERK assay (HTRF) in AsPC-1 cells; details: AsPC-1 cells, 3 h compound incubation, HTRF p-ERK T202/Y204, read-out: AsPC-1 p-ERK IC50
Outline: as §1

[3] = tested on: AsPC-1 cells (KRAS G12D mutation); test: 3D cell proliferation assay (CellTiter Glo-3D), AsPC-1; details: medium with 2% FBS, read-out: AsPC-1 AP IC50
Outline: (§2)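 NCI-H441 ([…] lung) and AsPC-1 (KRAS G12D pancreatic) cells, 800 per well, were seeded in RPMI-1640 with 2% FBS and dosed next day with 3.16-fold compound dilutions (0.1% DMSO). After 5 days at 37 °C, CellTiter-Glo 3D luminescence gave inhibition versus DMSO and blank; IC50 from four-parameter fit.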

NCI-H441 cells = test: 3D cell proliferation assay (CellTiter Glo-3D), NCI-H441; details: medium with 2% FBS, read-out: H441 AP IC50
Outline: as §2

[4] = Homo sapiens, ASPC1, 3D cell proliferation (CellTiter Glo-3D)
[5] = Homo sapiens, NCI-H441, 3D cell proliferation (CellTiter Glo-3D)
[6] = 3D cell proliferation (CellTiter Glo-3D)

Row | Compound | IC50 ([1]; Homo sapiens, NCI-H441, 3 h) [nM] | IC50 ([2]; Homo sapiens, ASPC1, 3 h) [nM] | IC50 [3, 4] [nM] | IC50 (NCI-H441 cells; [5]) [nM] | IC50 [1] [nM] | IC50 [2] [nM] | IC50 [3, 6] [nM] | IC50 (NCI-H441 cells; [6]) [nM]
1 | CCn1c(-c2cc(N3CCC(N4CCS(=O)(=O)CC4)CC3)cnc2[C@H](C)OC)c2c3cc(ccc31)-c1csc(n1)C[C@H](NC(=O)[C@H]1[C@H](C)[C@@H]1C)C(=O)N1CCC[C@H](N1)C(=O)OCC(C)(C)C2 (atropisomer, axis not shown; (Ra)) [Compound Z855, (1r,2R,3S)—N-((6S,4S,Z)—(Ra)-1^2-(5-(4-(1,1-dioxidothiomorpholino)piperidin-1-yl)-2-((S)-1-methoxyethyl)pyridin-3-yl)-1^1-ethyl-10,10-dimethyl-5,7-dioxo-6^1,6^2,6^3,6^4,6^5,6^6-hexahydro-1^1H-8-oxa-2(4,2)-thiazola-1(5,3)-indola-6(1,3)-pyridazinacycloundecaphane-4-yl)-2,3-dimethylcyclopropane-1-carboxamide] | 0.17 | 0.29 | 0.22 | 0.16 | – | – | – | –
2 | CCn1c(-c2cc(C#CCN3CCCOCC3)cnc2[C@H](C)OC)c2c3cc(ccc31)-c1csc(n1)C[C@H](NP(=O)(CC)CC)C(=O)N1CCC[C@H](N1)C(=O)OCC(C)(C)C2 (atropisomer, axis not shown; (Ra)) [Compound Z920, N-((6^3S,4S,Z)—(Ra)-1^2-(5-(3-(1,4-oxazepan-4-yl)prop-1-yn-1-yl)-2-((S)-1-methoxyethyl)pyridin-3-yl)-1^1-ethyl-10,10-dimethyl-5,7-dioxo-6^1,6^2,6^3,6^4,6^5,6^6-hexahydro-1^1H-8-oxa-2(4,2)-thiazola-1(5,3)-indola-6(1,3)-pyridazinacycloundecaphane-4-yl)-P,P-diethylphosphoramidite formate] | – | – | – | – | 9.41 | 33.8 | 38.3 | 15
3 | CCn1c(-c2cc(C#CCN3CCCOCC3)cnc2[C@H](C)OC)c2c3cc(ccc31)-c1csc(n1)C[C@H](NC(=O)C(F)(F)C1CC1)C(=O)N1CCC[C@H](N1)C(=O)OCC(C)(C)C2 (atropisomer, axis not shown; (Ra)) [Compound Z927] | 1.77 | 3.89 | 6.34 | 3.86 | – | – | – | –
4 | CCn1c(-c2cc(C#CCN3CCCOCC3)cnc2[C@H](C)OC)c2c3cc(ccc31)-c1csc(n1)C[C@H](NC(=O)C[C@@H]1CC1(F)F)C(=O)N1CCC[C@H](N1)C(=O)OCC(C)(C)C2 (atropisomer, axis not shown; (Ra)) [Compound Z932-1, N-((6^3S,4S,Z)—(Ra)-1′-(5-(3-(1,4-oxazepan-4-yl)prop-1-yn-1-yl)-2-((S)-1-methoxyethyl)pyridin-3-yl)-1^1-ethyl-10,10-dimethyl-5,7-dioxo-6^1,6^2,6^3,6^4,6^5,6^6-hexahydro-1^1H-8-oxa-2(4,2)-thiazola-1(5,3)-indola-6(1,3)-pyridazinacycloundecaphane-4-yl)-2-((R)-2,2-difluorocyclopropyl)acetamide] | 1.02 | 2.28 | 3.82 | 2.25 | – | – | – | –
5 | CCn1c(-c2cc(C#CCN3CCCOCC3)cnc2[C@H](C)OC)c2c3cc(ccc31)-c1csc(n1)C[C@H](NC(=O)C[C@H]1CC1(F)F)C(=O)N1CCC[C@H](N1)C(=O)OCC(C)(C)C2 (atropisomer, axis not shown; (Ra)) [Compound Z932-2, N-((6^3S,4S,Z)—(Ra)-1^2-(5-(3-(1,4-oxazepan-4-yl)prop-1-yn-1-yl)-2-((S)-1-methoxyethyl)pyridin-3-yl)-1^1-ethyl-10,10-dimethyl-5,7-dioxo-6^1,6^2,6^3,6^4,6^5,6^6-hexahydro-1^1H-8-oxa-2(4,2)-thiazola-1(5,3)-indola-6(1,3)-pyridazinacycloundecaphane-4-yl)-2-((S)-2,2-difluorocyclopropyl)acetamide] | 1.16 | 2.62 | 5.52 | 2.32 | – | – | – | –
6 | CCn1c(-c2cc(C#CCN3CCCOCC3)cnc2[C@H](C)OC)c2c3cc(ccc31)-c1csc(n1)C[C@H](NC(=O)CC1CC1(F)F)C(=O)N1CCC[C@H](N1)C(=O)OCC(C)(C)C2 (atropisomer, axis not shown; (Ra)) [Compound Z932] | 1.22 | 2.14 | 4.14 | 1.68 | – | – | – | –
7 | CO[C@@H](C)c1ncc(C#CCN2CCS(=O)(=O)CC2)cc1-c1c2c3cc(ccc3n1CCO)-c1csc(n1)C[C@H](NC(=O)[C@H]1[C@H](C)[C@@H]1C)C(=O)N1CCC[C@H](N1)C(=O)OCC(C)(C)C2 (atropisomer, axis not shown; (Ra)) [Compound Z952, (1r,2R,3S)—N-((6^3S,4S,Z)—(Ra)-1^2-(5-(3-(1,1-dioxidothiomorpholino)prop-1-yn-1-yl)-2-((S)-1-methoxyethyl)pyridin-3-yl)-1^1-(2-hydroxyethyl)-10,10-dimethyl-5,7-dioxo-6^1,6^2,6^3,6^4,6^5,6^6-hexahydro-1^1H-8-oxa-2(4,2)-thiazola-1(5,3)-indola-6(1,3)-pyridazinacycloundecaphane-4-yl)-2,3-dimethylcyclopropane-1-carboxamide] | 0.54 | 0.53 | 0.27 | 0.34 | – | – | – | –
8 | CCn1c(-c2cc(C#CCN3CCCS(=O)(=O)CC3)cnc2[C@H](C)OC)c2c3cc(ccc31)-c1csc(n1)C[C@H](Nc1nnc3cc(C)ccn13)C(=O)N1CCC[C@H](N1)C(=O)OCC(C)(C)C2 (atropisomer, axis not shown; (Ra)) [Compound Z979] | 1.05 | 2.47 | 5.14 | 1.23 | – | – | – | –
9 | CCn1c(-c2cc(C#CCN3CC[C@H](C#N)C3)cnc2[C@H](C)OC)c2c3cc(ccc31)-c1csc(n1)C[C@H](Nc1nnc3cc(C)ccn13)C(=O)N1CCC[C@H](N1)C(=O)OCC(C)(C)C2 (atropisomer, axis not shown; (Ra)) [Compound Z1011, (3S)-1-(3-(5-((6^3S,4S,Z)—(Ra)-1^1-ethyl-10,10-dimethyl-4-((7-methyl-[1,2,4]triazolo[4,3-a]pyridin-3-yl)amino)-5,7-dioxo-6^1,6^2,6^3,6^4,6^5,6^6-hexahydro-1^1H-8-oxa-2(4,2)-thiazola-1(5,3)-indola-6(1,3)-pyridazinacycloundecaphane-1-yl)-6-((S)-1-methoxyethyl)pyridin-3-yl)prop-2-yn-1-yl)pyrrolidine-3-carbonitrile] | – | – | – | – | 1.22 | 2.89 | 2.07 | 1.54

Other lines, results leading:

Row | IC50 ([1]; Homo sapiens, NCI-H441, 3 h) [nM] | IC50 ([2]; Homo sapiens, ASPC1, 3 h) [nM] | IC50 [3, 4] [nM] | IC50 (NCI-H441 cells; [5]) [nM] | IC50 [1] [nM] | IC50 [2] [nM] | IC50 [3, 6] [nM] | IC50 (NCI-H441 cells; [6]) [nM] | Compound
10 | – | – | – | – | 0.27 | 0.19 | 0.24 | 0.11 | CCn1c(-c2cc(C#CCN3CCCOCC3)c[n+]([O-])c2[C@H](C)OC)c2c3cc(ccc31)-c1csc(n1)C[C@H](NC(=O)[C@H]1[C@H](C)[C@@H]1C)C(=O)N1CCC[C@H](N1)C(=O)OCC(C)(C)C2 (atropisomer, axis not shown; (Ra)) [Compound Z914-1, 5-(3-(1,4-oxazepan-4-yl)prop-1-yn-1-yl)-(Ra)-3-((6^3S,4S,Z)-4-((1r,2R,3S)-2,3-dimethylcyclopropane-1-carboxamido)-1^1-ethyl-10,10-dimethyl-5,7-dioxo-6^1,6^2,6^3,6^4,6^5,6^6-hexahydro-1^1H-8-oxa-2(4,2)-thiazola-1(5,3)-indola-6(1,3)-pyridazinacycloundecaphane-12-yl)-2-((S)-1-methoxyethyl)pyridine-1-oxide]
11 | 0.18 | 0.28 | 0.23 | 0.23 | – | – | – | – | CCn1c(-c2cc(C#CCN3CC(OC)C3)cnc2[C@H](C)OC)c2c3cc(ccc31)-c1csc(n1)C[C@H](NC(=O)[C@H]1[C@H](C)[C@@H]1C)C(=O)N1CCC[C@H](N1)C(=O)OCC(C)(C)C2 (atropisomer, axis not shown; (Ra)) [Compound Z945, (1r,2R,3S)—N-((6^3S,4S,Z)-1^1-ethyl-1^2-(5-(3-(3-methoxyazetidin-1-yl)prop-1-yn-1-yl)-(Ra)-2-((S)-1-methoxyethyl)pyridin-3-yl)-10,10-dimethyl-5,7-dioxo-6^1,6^2,6^3,6^4,6^5,6^6-hexahydro-1^1H-8-oxa-2(4,2)-thiazola-1(5,3)-indola-6(1,3)-pyridazinacycloundecaphane-4-yl)-2,3-dimethylcyclopropane-1-carboxamide]
12 | 0.5 | 0.42 | 0.36 | 0.43 | – | – | – | – | CCn1c(-c2cc(C#CCN3CCCNCC3)cnc2[C@H](C)OC)c2c3cc(ccc31)-c1csc(n1)C[C@H](NC(=O)[C@H]1[C@H](C)[C@@H]1C)C(=O)N1CCC[C@H](N1)C(=O)OCC(C)(C)C2 (atropisomer, axis not shown; (Ra)) [Compound Z951]
13 | 0.17 | 0.17 | 0.39 | 0.28 | – | – | – | – | CCn1c(-c2cc(C#CCN3CCCOCC3)cnc2[C@H](C)OC)c2c3cc(ccc31)-c1csc(n1)C[C@H](NC(=O)C1[C@H]3COC[C@@H]13)C(=O)N1CCC[C@H](N1)C(=O)OCC(C)(C)C2 (atropisomer, axis not shown; (Ra)) [Compound Z1030]
